{"source": "patent US4254127A", "about": "“1,3-Dihydro-1-[(1-piperidinyl)alkyl]-2H-benzimidazol-2-one derivatives” (Janssen Pharmaceutica, N.V., priority 1980, dated 1981)", "key": {"[1]": {"test_system": "apomorphine-induced phenomena: agitation and stereotypic chewing", "assay": "combined test in rats: apomorphine (APO)-induced agitation and stereotypic chewing", "type": "in vivo, adult male Wistar rats", "details": "sc, 0.5 h; s.c.; rat; apomorphine hydrochloride 1.25 mg/kg i.v. 30 minutes after compound; dose protecting 50% of animals"}, "[2]": {"test_system": "tryptamine-induced bilateral tonic seizures", "assay": "combined test in rats: tryptamine (TRY)-induced bilateral tonic seizures", "type": "in vivo, adult male Wistar rats", "details": "sc, 1.5 h; s.c.; rat; tryptamine 40 mg/kg i.v. at 90 minutes; dose protecting 50% of animals; read-out: ED0 (TRY)-rat"}, "[3]": {"test_system": "apomorphine-induced emesis", "assay": "apomorphine test in dogs (APO-dog): protection from emesis", "type": "in vivo, beagle dogs", "details": "Canis lupus familiaris, sc, apomorphine 0.31 mg/kg s.c. 1 hour after compound, dose protecting 50% from emesis", "text": "2. The apomorphine test in dogs (APO-dog). The method used is described by P. A. J. Janssen and C. J. E. Niemegeers in Arzneim.-Forsch."}, "[4]": {"test_system": "lesions induced by compound 48/80", "assay": "gastric lesion test: lesions induced by compound 48/80", "type": "in vivo, rats", "details": "Rattus norvegicus"}, "[5]": {"test_system": "lesions induced by compound 48/80", "details": "rats, known serotonin antagonists; cited from earlier work"}}}
{"smiles": "Cn1c(=O)n(CCN2CCC(CC(=O)c3ccc(F)cc3)CC2)c2ccccc21", "note": "[H, H, CH3, (CH2)2, CO, 4-FC6 H4, base]", "values": [{"measurement": "ED50", "setting": "[1]", "value": 0.63, "unit": "mg/kg"}, {"measurement": "ED50", "setting": "[2]", "value": 0.63, "unit": "mg/kg"}, {"measurement": "ED50", "setting": "[3]", "value": 0.63, "unit": "mg/kg"}, {"measurement": "ED50", "setting": "[4]", "value": 0.31, "unit": "mg/kg"}]}
{"smiles": "Cc1ccc(C(=O)CC2CCN(CCn3c(=O)[nH]c4ccccc43)CC2)cc1", "note": "[H, H, H, (CH2)2, CO, 4-CH3C6 H4, base]", "values": [{"measurement": "ED50", "setting": "[2]", "value": 2.5, "unit": "mg/kg"}, {"measurement": "ED50", "setting": "[3]", "value": 0.5, "unit": "mg/kg"}, {"measurement": "ED50", "setting": "[4]", "value": 0.63, "unit": "mg/kg"}]}
{"smiles": "CC(CCn1c(=O)[nH]c2ccccc21)N1CCC(CC(=O)c2ccc(F)cc2)CC1", "note": "(stereo not shown) [H, H, H, [drawing 21], CO, 4-FC6 H4, base, 1-[3-[4-[2-(4-fluorophenyl)-2-oxoethyl]-1-piperidinyl]butyl]-1,3-dihydro-2H-benzimidazol-2-one]", "values": [{"measurement": "ED50", "setting": "[2]", "value": 5, "unit": "mg/kg"}, {"measurement": "ED50", "setting": "[4]", "value": 1.25, "unit": "mg/kg"}]}
{"smiles": "CN(C)CCCSc1ccccc1NC(=O)/C=C/c1ccccc1", "note": "[cinanserin]", "values": [{"measurement": "prevention of cyanosis of ears and extremities", "setting": "[5]", "value": "prevent completely"}, {"measurement": "prevention of lesions in the glandular area of the stomach and abnormal gastric distension", "setting": "[5]", "value": "prevent completely"}]}
{"smiles": "CN1C[C@H](CNC(=O)OCc2ccccc2)C[C@@H]2c3cccc4c3c(cn4C)C[C@H]21", "note": "[metergoline]", "values": [{"measurement": "prevention of cyanosis of ears and extremities", "setting": "[5]", "value": "prevent completely"}, {"measurement": "prevention of lesions in the glandular area of the stomach and abnormal gastric distension", "setting": "[5]", "value": "prevent completely"}]}
{"smiles": "CN1CCN2c3ccccc3Cc3ccccc3C2C1", "note": "(stereo not shown) [mianserin]", "values": [{"measurement": "prevention of cyanosis of ears and extremities", "setting": "[5]", "value": "prevent completely"}, {"measurement": "prevention of lesions in the glandular area of the stomach and abnormal gastric distension", "setting": "[5]", "value": "prevent completely"}]}
{"smiles": "CN1CCC(=C2c3ccccc3CCc3sccc32)CC1", "note": "[pizotifen]", "values": [{"measurement": "prevention of cyanosis of ears and extremities", "setting": "[5]", "value": "prevent completely"}, {"measurement": "prevention of lesions in the glandular area of the stomach and abnormal gastric distension", "setting": "[5]", "value": "prevent completely"}]}
{"smiles": "O=C(CC1CCN(CCn2c(=O)[nH]c3cc(Cl)ccc32)CC1)c1ccc(F)cc1", "note": "[5-Cl, H, H, (CH2)2, CO, 4-FC6 H4, base]", "values": [{"measurement": "ED50", "setting": "[1]", "value": 2.5, "unit": "mg/kg"}, {"measurement": "ED50", "setting": "[2]", "value": 5, "unit": "mg/kg"}, {"measurement": "ED50", "setting": "[3]", "value": 0.12, "unit": "mg/kg"}, {"measurement": "ED50", "setting": "[4]", "value": 0.63, "unit": "mg/kg"}]}
{"smiles": "CC(=O)n1c(=O)n(CCN2CCC(CC(=O)c3ccc(F)cc3)CC2)c2ccccc21", "note": "[H, H, CH3 CO, (CH2)2, CO, 4-FC6 H4, base, 1-acetyl-3-[2-[4-[2-(4-fluorophenyl)-2-oxoethyl]-1-piperidinyl]ethyl]-1,3-dihydro-2H-benzimidazol-2-one]", "values": [{"measurement": "ED50", "setting": "[1]", "value": 1.25, "unit": "mg/kg"}, {"measurement": "ED50", "setting": "[2]", "value": 1.25, "unit": "mg/kg"}, {"measurement": "ED50", "setting": "[3]", "value": 1, "unit": "mg/kg"}, {"measurement": "ED50", "setting": "[4]", "value": 0.08, "unit": "mg/kg"}]}
{"smiles": "CN1CCC(=C2c3ccccc3C=Cc3ccccc32)CC1", "note": "[cyproheptadine]", "values": [{"measurement": "prevention of cyanosis of ears and extremities", "setting": "[5]", "value": "prevent completely"}, {"measurement": "prevention of lesions in the glandular area of the stomach and abnormal gastric distension", "setting": "[5]", "value": "prevent completely"}]}
{"smiles": "NC(=O)C1(N2CCCCC2)CCN(CCCC(=O)c2ccc(F)cc2)CC1", "note": "[pipamperone]", "values": [{"measurement": "prevention of cyanosis of ears and extremities", "setting": "[5]", "value": "prevent completely"}, {"measurement": "prevention of lesions in the glandular area of the stomach and abnormal gastric distension", "setting": "[5]", "value": "prevent completely"}]}
{"smiles": "O=C(CC1CCN(CCn2c(=O)[nH]c3ccccc32)CC1)c1ccc(Cl)cc1", "note": "[H, H, H, (CH2)2, CO, 4-ClC6 H4, base]", "values": [{"measurement": "ED50", "setting": "[1]", "value": 0.63, "unit": "mg/kg"}, {"measurement": "ED50", "setting": "[2]", "value": 2.5, "unit": "mg/kg"}, {"measurement": "ED50", "setting": "[3]", "value": 0.5, "unit": "mg/kg"}, {"measurement": "ED50", "setting": "[4]", "value": 0.16, "unit": "mg/kg"}]}
{"smiles": "O=c1[nH]c2ccccc2n1CCCN1CCC(CC(O)c2ccc(F)cc2)CC1", "note": "(stereo not shown)", "values": [{"measurement": "ED50", "setting": "[3]", "value": 0.5, "unit": "mg/kg"}, {"measurement": "ED50", "setting": "[4]", "value": 0.08, "unit": "mg/kg"}]}
{"smiles": "O=C(CC1CCN(CCCn2c(=O)[nH]c3ccccc32)CC1)c1ccc(F)cc1", "note": "[H, H, H, (CH2)3, CO, 4-FC6 H4, base, 1-[3-[4-[2-(4-fluorophenyl)-2-oxoethyl]-1-piperidinyl]propyl]-1,3-dihydro-2H-benzimidazol-2-one]", "values": [{"measurement": "ED50", "setting": "[2]", "value": 1.25, "unit": "mg/kg"}, {"measurement": "ED50", "setting": "[4]", "value": 0.08, "unit": "mg/kg"}]}
{"smiles": "O=C(CC1CCN(CCn2c(=O)[nH]c3cc(F)ccc32)CC1)c1ccc(F)cc1", "note": "[5-F, H, H, (CH2)2, CO, 4-FC6 H4, base]", "values": [{"measurement": "ED50", "setting": "[1]", "value": 0.16, "unit": "mg/kg"}, {"measurement": "ED50", "setting": "[2]", "value": 0.63, "unit": "mg/kg"}, {"measurement": "ED50", "setting": "[4]", "value": 0.31, "unit": "mg/kg"}]}
{"smiles": "Cn1c(=O)n(CCCN2CCC(CC(=O)c3ccc(F)cc3)CC2)c2ccccc21", "note": "[H, H, CH3, (CH2)3, CO, 4-FC6 H4, base]", "values": [{"measurement": "ED50", "setting": "[2]", "value": 1.25, "unit": "mg/kg"}, {"measurement": "ED50", "setting": "[4]", "value": 0.31, "unit": "mg/kg"}]}
{"smiles": "CC[C@@H](CO)NC(=O)[C@@H]1C=C2c3cccc4c3c(cn4C)C[C@H]2N(C)C1", "note": "[methysergide]", "values": [{"measurement": "prevention of cyanosis of ears and extremities", "setting": "[5]", "value": "prevent completely"}, {"measurement": "prevention of lesions in the glandular area of the stomach and abnormal gastric distension", "setting": "[5]", "value": "prevent completely"}]}
{"smiles": "Cc1ccc2c(c1)[nH]c(=O)n2CCN1CCC(CC(=O)c2ccc(F)cc2)CC1", "note": "[5-CH3, H, H, (CH2)2, CO, 4-FC6 H4, base]", "values": [{"measurement": "ED50", "setting": "[2]", "value": 0.63, "unit": "mg/kg"}, {"measurement": "ED50", "setting": "[3]", "value": 0.08, "unit": "mg/kg"}, {"measurement": "ED50", "setting": "[4]", "value": 0.63, "unit": "mg/kg"}]}
{"smiles": "O=C(CC1CCN(CCn2c(=O)[nH]c3ccccc32)CC1)c1ccccc1", "note": "[H, H, H, (CH2)2, CO, C6 H5, base]", "values": [{"measurement": "ED50", "setting": "[1]", "value": 0.63, "unit": "mg/kg"}, {"measurement": "ED50", "setting": "[2]", "value": 2.5, "unit": "mg/kg"}, {"measurement": "ED50", "setting": "[3]", "value": 0.25, "unit": "mg/kg"}, {"measurement": "ED50", "setting": "[4]", "value": 0.31, "unit": "mg/kg"}]}
{"smiles": "O=C(CCCN1CCC2(CC1)C(=O)NCN2c1ccccc1)c1ccc(F)cc1", "note": "[spiperone]", "values": [{"measurement": "prevention of cyanosis of ears and extremities", "setting": "[5]", "value": "prevent completely"}, {"measurement": "prevention of lesions in the glandular area of the stomach and abnormal gastric distension", "setting": "[5]", "value": "prevent completely"}]}
{"smiles": "O=C(CC1CCN(CCn2c(=O)[nH]c3ccccc32)CC1)c1ccc(F)cc1", "note": "[H, H, H, (CH2)2, CO, 4-FC6 H4, base, 1-[2-[4-[2-(4-fluorophenyl)-2-oxoethyl]-1-piperidinyl]ethyl]-1,3-dihydro-2H-benzimidazol-2-one]", "values": [{"measurement": "ED50", "setting": "[1]", "value": 0.31, "unit": "mg/kg"}, {"measurement": "ED50", "setting": "[2]", "value": 0.31, "unit": "mg/kg"}, {"measurement": "ED50", "setting": "[3]", "value": 0.03, "unit": "mg/kg"}, {"measurement": "ED50", "setting": "[4]", "value": 0.01, "unit": "mg/kg"}]}
{"smiles": "O=C(CC1CCN(CCn2c(=O)[nH]c3ccc(Cl)cc32)CC1)c1ccc(F)cc1", "note": "[6-Cl, H, H, (CH2)2, CO, 4-FC6 H4, base]", "values": [{"measurement": "ED50", "setting": "[1]", "value": 2.5, "unit": "mg/kg"}, {"measurement": "ED50", "setting": "[2]", "value": 1.25, "unit": "mg/kg"}, {"measurement": "ED50", "setting": "[3]", "value": 0.5, "unit": "mg/kg"}, {"measurement": "ED50", "setting": "[4]", "value": 0.63, "unit": "mg/kg"}]}
